Experimental data reported in patent US7462733B2, “Preparation and use of α-keto phosphonates” (University of Southern California, priority 2001, dated 2008).

Test: pH dependence of ketone-hydrate equilibrium (31P NMR, absorbance 420 nm)
Type: physicochemical
Text: The ketone 13a and hydrate forms 13b are simultaneously detectable by ^31P, and also via the visible absorbance (420 nm) of the ketone chromophore (yellow). At low pH, the hydrate form 13b predominates, the phosphorus NMR peak shifting from −2 to 15 ppm. The reaction is reversible, the ketone reforming as the pH is increased. The pH at which 50% of the ketone is transferred to its hydrate form (‘pK’) is 2.2 (rt, 10^−7M in D2O). This unequivocally coincides with the protonation of the phosphonate function. Upon addition of MgCl2, the apparent ‘pK’ of the equilibrium shifts by nearly 2 pH units towards left to reach 4.2 (FIG. 4).
We, report here synthesis and characterization of the first example of a new class of nucleotide analog, in which the α,β-phosphoric anhydride oxygen of the 5′-diphosphate moiety is replaced by a reactive carbonyl group: the carbonylbisphosphonate analog of 3′-azido-3′desoxythymidine 5′-diphosphate, 13. The structures of 13 and its diazomethylenebisphosphonate precursor 12 were confirmed by ^1H, ^13C and ^31P NMR, and high-resolution mass spectrometry. The ketone and hydrate forms of 13 are simultaneously detectable by ^31P, and also via the visible absorbance (420 nm) of the ketone chromophore. At low pH, the hydrate form predominates, the phosphorus NMR peak shifting from −2 to 15 ppm. The reaction is reversible, the ketone reforming as the pH is increased. Addition of Mg^2+ shifts the ‘pK’ of the equilibrium by nearly 2 pH units. (See FIG. 4).

- shift of the 'pK' of the equilibrium on addition of Mg2+ (addition of MgCl2 / Mg^2+): ~2 pH units
- pH at which 50% of the ketone is transferred to its hydrate form ('pK') (rt, 10^−7M in D2O, no Mg): 2.2
- apparent 'pK' of the ketone-hydrate equilibrium (upon addition of MgCl2): 4.2
SMILES: Cc1cn([C@H]2C[C@H](N=[N+]=[N-])[C@@H](COP(=O)(O)C(=O)P(=O)(O)O)O2)c(=O)[nH]c1=O [Compound 13a, 3′-Azido-3′-Deoxythymidine 5′-Carbonylbisphosphonate]
